The results in this text go back to patent publication US7338958B2, “Sulfoximine-substituted pyrimidines as CDK-and/or VEGF inhibitors, their production and use as pharmaceutical agents” (Schering AG, priority 2003, dated 2008).

Experiment [1] relates to NCI-H460, human non-small-cell lung cancer cells. Description: Proliferation assay, H460. The format is cell-based. The settings on record: NCI-H460, 96 h, 4 days incubation, crystal violet. The text has this:
(§1) Cultivated human tumor cells (MCF7, hormone-independent human breast cancer cells, related to ATCC HTB22; NCI-H460, human non-small-cell lung cancer cells, ATCC HTB-177, HCT 116, human colon cancer cells, ATCC CCL-247; DU 145, hormone-independent human prostate cancer cells, ATCC HTB-81; MaTu-MDR, hormone-independent, multiple pharmaceutical agent-resistant human breast cancer cells, EPO-GmbH, Berlin) were flattened out at a density of about 5000 cells/measuring point, depending on the growth rate of the respective cells, in a 96-well multititer plate in 200 μl of the corresponding growth medium. After 24 hours, the cells of one plate (zero-point plate) were colored with crystal violet (see below), while the medium of the other plates was replaced by fresh culture medium (200 μl), to which the test substances were added in various concentrations (0 μm, as well as in the range of 0.01-30 μm; the final concentration of the solvent dimethyl sulfoxide was 0.5%). The cells were incubated for 4 days in the presence of test substances. The cell proliferation was determined by coloring the cells with crystal violet: the cells were fixed by adding 20 μl/measuring point of an 11% glutaric aldehyde solution for 15 minutes at room temperature. After three washing cycles of the fixed cells with water, the plates were dried at room temperature. The cells were colored by adding 100 μl/measuring point of a 0.1% crystal violet solution (the pH was set at 3 by adding acetic acid). After three washing cycles of the colored cells with water, the plates were dried at room temperature. The dye was dissolved by adding 100 μl/measuring point of a 10% acetic acid solution. The extinction was determined by photometry at a wavelength of 595 nm. The change of cell growth, in percent, was calculated by normalization of the measured values to the extinction values of the zero-point plate (=0%) and the extinction of the untreated (0 μm) cells (=100%).

Experiment [2] relates to DU 145, hormone-independent human prostate cancer cells. Description: Proliferation assay, DU145. The format is cell-based. The settings on record: DU-145, 96 h, 4 days incubation, crystal violet.
Text: as §1

Experiment [3] relates to MCF7, hormone-independent human breast cancer cells. Put plainly: Proliferation assay, MCF7. The format is cell-based. The following applies: MCF7, 96 h, 4 days incubation, crystal violet.
Text: as §1

In a further experiment the target is T1, CDK2/CycE (Homo sapiens, UniProt P24941).
T1 construct: GST; purchased ProQinase GmbH, Freiburg; host or cells: baculovirus-infected insect cells (Sf9)
Put plainly: CDK2/CycE Kinase Assay. The experiment is classed as biochemical. The settings on record: histone IIIS substrate, 33P-ATP, 15 minutes at 22° C. On the procedure:
Recombinant CDK2- and CycE-GST-fusion proteins, purified from baculovirus-infected insect cells (Sf9), were purchased by ProQinase GmbH, Freiburg. Histone IIIs, which was used as a kinase substrate, was purchased by the Sigma Company.
CDK2/CycE (50 ng/measuring point) was incubated for 15 minutes at 22° C. in the presence of various concentrations of test substances (0 μm, as well as within the range of 0.01-100 μm) in assay buffer [50 mmol of tris/HCl, pH 8.0, 10 mmol of MgCl2, 0.1 mmol of Na ortho-vanadate, 1.0 mmol of dithiothreitol, 0.5 μm of adenosine triphosphate (ATP), 10 μg/measuring point of histone IIIS, 0.2 μCi/measuring point of ^33P-gamma ATP, 0.05% NP40, 12.5% dimethyl sulfoxide]. The reaction was stopped by adding EDTA solution (250 mmol, pH 8.0, 14 μl/measuring point).
From each reaction batch, 10 μl was applied to P30 filter strips (Wallac Company), and non-incorporated ^33P-ATP was removed by subjecting the filter strips to three washing cycles for 10 minutes each in 0.5% phosphoric acid. After the filter strips were dried for one hour at 70° C., the filter strips were covered with scintillator strips (MeltiLex™ A, Wallac Company) and baked for one hour at 90° C. The amount of incorporated ^33P (substrate phosphorylation) was determined by scintillation measurement in a gamma-radiation measuring device (Wallac).

Another experiment concerns the target T2, CDK1/CycB (Homo sapiens, UniProt P06493).
T2 construct: GST; purchased ProQinase GmbH, Freiburg; host or cells: baculovirus-infected insect cells (Sf9)
Put plainly: CDK1/CycB Kinase Assay. The following applies: histone IIIS substrate, 33P-ATP, 15 minutes at 22° C. The experiment is classed as biochemical. As for the experimental part:
Recombinant CDK1- and CycB-GST-fusion proteins, purified from baculovirus-infected insect cells (Sf9), were purchased from ProQinase GmbH, Freiburg. Histone IIIS, used as a kinase substrate, is available commercially from the Sigma Company.
The reaction was stopped by adding EDTA solution (250 mmol, pH 8.0, 14 μl/measuring point).
(§2) From each reaction batch, 10 μl was applied to P30 filter strips (Wallac Company), and non-incorporated 33P-ATP was removed by subjecting the filter strips to three washing cycles for 10 minutes each in 0.5% phosphoric acid. After the filter strips were dried for one hour at 70° C., the filter strips were covered with scintillator strips (MeltiLex™ A, Wallac Company) and baked for one hour at 90° C. The amount of incorporated 33P (substrate phosphorylation) was determined by scintillation measurement in a gamma-radiation measuring device (Wallac).

For another experiment, the system named is MaTu-ADR. Description: Proliferation assay, MaTu-ADR. The settings on record: Homo sapiens, 96 h, MaTu-ADR cells, 4 days incubation, crystal violet. The experiment is classed as cell-based.
Text: as §1

Experiment [4] addresses T3, VEGF receptor tyrosine kinase-2 (Homo sapiens, UniProt P35968).
T3 construct: GST; made in house; host or cells: baculovirus-infected insect cells (Sf9)
Put plainly: VEGF Receptor-2 Kinase Assay. The experiment is classed as biochemical. The following applies: poly-(Glu4Tyr) substrate, 33P-ATP, 10 minutes at 22° C.; read-out: VEGF-R2 IC50. On the procedure: VEGF Receptor-2 Kinase Assay
Recombinant VEGF receptor tyrosine kinase-2 was purified as a GST fusion protein from baculovirus-infected insect cells (Sf9). Poly-(Glu4Tyr), which was used as a kinase substrate, was purchased by the Sigma Company.
VEGF receptor tyrosine kinase (90 ng/measuring point) was incubated for 10 minutes at 22° C. in the presence of various concentrations of test substances (0 μm, as well as within the range of 0.001-30 μm) in 30 μl of assay buffer [40 mmol of Tris/HCl, […], 10 mmol of MgCl2, 1 mmol of MnCl2, 3 μmol of Na ortho-vanadate, 1.0 mmol of dithiothreitol, 8 μmol of adenosine trisphosphate (ATP), 27 μg/measuring point of poly-(Glu4Tyr), 0.2 μCi/measuring point of 33P-gamma ATP, 1% dimethyl sulfoxide]. The reaction was stopped by adding EDTA solution (250 mmol, pH 7.0, 10 μl/measuring point).
as §2

T2 sequence (P06493 whole entry): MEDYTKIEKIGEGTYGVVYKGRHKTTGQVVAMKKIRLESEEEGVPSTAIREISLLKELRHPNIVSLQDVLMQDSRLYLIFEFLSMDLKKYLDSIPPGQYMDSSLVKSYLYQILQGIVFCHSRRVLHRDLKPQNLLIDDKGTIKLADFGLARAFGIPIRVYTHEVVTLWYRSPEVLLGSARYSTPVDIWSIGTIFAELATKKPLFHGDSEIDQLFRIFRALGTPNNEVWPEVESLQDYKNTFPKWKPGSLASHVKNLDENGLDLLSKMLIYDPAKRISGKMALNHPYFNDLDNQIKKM
T2 sequence (P14635 whole entry partner): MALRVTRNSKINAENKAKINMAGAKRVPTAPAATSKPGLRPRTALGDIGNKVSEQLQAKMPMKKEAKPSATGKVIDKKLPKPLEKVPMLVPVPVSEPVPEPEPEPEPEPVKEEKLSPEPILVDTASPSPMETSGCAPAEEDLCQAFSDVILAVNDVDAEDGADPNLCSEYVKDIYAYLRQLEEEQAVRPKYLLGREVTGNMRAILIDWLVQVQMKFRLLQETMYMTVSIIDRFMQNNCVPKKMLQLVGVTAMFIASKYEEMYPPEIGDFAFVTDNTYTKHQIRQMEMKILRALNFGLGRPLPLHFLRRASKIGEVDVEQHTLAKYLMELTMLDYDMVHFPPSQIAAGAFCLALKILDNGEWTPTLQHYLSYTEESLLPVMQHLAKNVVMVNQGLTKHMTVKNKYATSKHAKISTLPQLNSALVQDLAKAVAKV
T3 sequence (P35968 20-1356): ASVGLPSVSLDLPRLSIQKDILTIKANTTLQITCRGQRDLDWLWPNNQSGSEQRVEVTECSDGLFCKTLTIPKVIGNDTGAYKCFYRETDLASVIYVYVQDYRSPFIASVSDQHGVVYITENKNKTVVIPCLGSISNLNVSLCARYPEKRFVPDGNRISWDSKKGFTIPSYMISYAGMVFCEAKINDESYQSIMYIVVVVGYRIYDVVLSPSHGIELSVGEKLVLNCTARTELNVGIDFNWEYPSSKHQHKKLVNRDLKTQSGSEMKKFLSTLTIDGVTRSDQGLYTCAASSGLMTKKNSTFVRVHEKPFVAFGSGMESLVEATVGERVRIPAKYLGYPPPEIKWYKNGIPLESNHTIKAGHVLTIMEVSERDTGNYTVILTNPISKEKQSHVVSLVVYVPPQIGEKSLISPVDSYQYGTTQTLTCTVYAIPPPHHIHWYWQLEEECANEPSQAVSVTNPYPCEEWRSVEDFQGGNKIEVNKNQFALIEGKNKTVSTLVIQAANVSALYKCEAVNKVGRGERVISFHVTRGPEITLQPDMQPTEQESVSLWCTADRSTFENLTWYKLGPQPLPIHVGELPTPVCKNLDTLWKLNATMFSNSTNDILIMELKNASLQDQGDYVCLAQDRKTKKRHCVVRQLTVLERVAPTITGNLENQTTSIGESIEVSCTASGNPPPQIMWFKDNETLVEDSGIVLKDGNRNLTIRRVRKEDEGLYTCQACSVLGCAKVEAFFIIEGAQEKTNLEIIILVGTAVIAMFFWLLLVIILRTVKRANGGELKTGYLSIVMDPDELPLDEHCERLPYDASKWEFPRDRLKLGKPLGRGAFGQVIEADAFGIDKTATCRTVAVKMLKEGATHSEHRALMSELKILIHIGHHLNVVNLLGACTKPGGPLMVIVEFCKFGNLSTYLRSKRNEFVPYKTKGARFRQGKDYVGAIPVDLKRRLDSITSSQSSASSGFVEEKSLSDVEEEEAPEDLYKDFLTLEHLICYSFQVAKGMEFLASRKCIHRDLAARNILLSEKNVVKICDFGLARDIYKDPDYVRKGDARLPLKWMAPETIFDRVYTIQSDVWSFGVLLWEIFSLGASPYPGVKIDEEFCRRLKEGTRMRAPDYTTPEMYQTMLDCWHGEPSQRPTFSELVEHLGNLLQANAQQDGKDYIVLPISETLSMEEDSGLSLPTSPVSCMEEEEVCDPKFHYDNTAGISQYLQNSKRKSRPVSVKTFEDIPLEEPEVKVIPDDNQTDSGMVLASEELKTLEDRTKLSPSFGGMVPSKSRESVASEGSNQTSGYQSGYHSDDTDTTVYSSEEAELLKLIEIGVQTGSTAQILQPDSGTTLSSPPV

As for `CCC(Sc1nc(Nc2ccc(S(C)(=N)=O)cc2)ncc1Br)C(C)O` (racemic) [Example 3.6, (RS)-S-[4-({5-bromo-4-[(RS,RS)-(1-ethyl-2-hydroxypropyl)sulfanyl]pyrimidin-2-yl}amino)phenyl]-S-methyl sulfoximide], the concentration for half-maximal inhibition (IC50) amounted to 20 nM in experiment [1]; 20 nM in experiment [2]; 80 nM in experiment [3]; 18 nM against CDK2/CycE; 22 nM on CDK1/CycB; 20 nM in the experiment with MaTu-ADR.

As for `CCOC(=O)N=S(C)(=O)c1ccc(Nc2ncc(Br)c(N[C@H](C)C(C)(C)O)n2)cc1` (mixture of isomers) [Example 1.31, (RS)-S-[4-({5-bromo-4-[(R)-(2-hydroxy-1,2-dimethylpropyl)amino]pyrimidin-2-yl}amino)phenyl]-N-(ethoxycarbonyl)-S-methyl sulfoximide], the IC50 in experiment [1] was 180 nM; in experiment [2], 300 nM; in experiment [3], 200 nM; against CDK2/CycE, 9 nM; at CDK1/CycB, 27 nM; in the experiment on MaTu-ADR, 700 nM. For the same molecule, the 50% inhibitory concentration (IC50) in experiment [4] amounted to 140 nM.

Regarding `CCS(=N)(=O)c1ccc(Nc2ncc(Br)c(N[C@H](C)[C@@H](C)O)n2)cc1` (mixture of isomers) [Example 1.51, (RS)-S-[4-({5-bromo-4-[(1R,2R)-(2-hydroxy-1-methylpropyl)amino]pyrimidin-2-yl}amino)phenyl]-S-ethyl sulfoximide], the IC50 in experiment [1] worked out at 50 nM; in experiment [2], 50 nM; against CDK1/CycB, 5 nM; in the experiment on MaTu-ADR it was 60 nM; in experiment [4], 26 nM.

Take `C[C@@H](Nc1nc(Nc2ccc(S(=O)(=NS(=O)(=O)CC[Si](C)(C)C)C3CCCC3)cc2)ncc1Br)C(C)(C)O` (mixture of isomers) [Example 1.10, (RS)-S-[4-({5-bromo-4-[(R)-(2-hydroxy-1,2-dimethylpropyl)amino]pyrimidin-2-yl}amino)phenyl]-S-cyclopentyl-N-[2-(trimethylsilyl)ethylsulfonyl]sulfoximide]: the half-maximal inhibitory concentration (IC50) in experiment [1] was 700 nM; in experiment [2], 800 nM; in experiment [3], 500 nM; against CDK2/CycE, above 1000 nM; against CDK1/CycB it was above 1000 nM; with MaTu-ADR, 800 nM. In addition, in experiment [4], the IC50 was 910 nM.

In the case of `CN=S(C)(=O)c1ccc(Nc2ncc(Br)c(N[C@H](C)[C@@H](C)O)n2)cc1` (mixture of isomers) [Example 1.28, (RS)-S-[4-({5-bromo-4-[(1R,2R)-(2-hydroxy-1-methylpropyl)amino]pyrimidin-2-yl}amino)phenyl]-N,S-dimethyl-sulfoximide], the concentration for half-maximal inhibition (IC50) in experiment [1] was 120 nM; in experiment [2], 200 nM; against CDK2/CycE, 7 nM; against CDK1/CycB, 14 nM; in the experiment on MaTu-ADR, 200 nM.

As to `C[C@@H](Nc1nc(Nc2ccc(S(=N)(=O)C3CCCC3)cc2)ncc1Br)C(C)(C)O` (mixture of isomers) [Example 1.11, (RS)-S-[4-({5-bromo-4-[(R)-(2-hydroxy-1,2-dimethylpropyl)amino]pyrimidin-2-yl}amino)phenyl]-S-cyclopentylsulfoximide], the half-maximal inhibitory concentration (IC50) in experiment [1] was below 100 nM; in experiment [2] it was below 100 nM; in experiment [3] it was 100 nM; against CDK2/CycE, 25 nM; on CDK1/CycB, 44 nM; with MaTu-ADR, 100 nM.

With `C[C@@H](Nc1nc(Nc2ccc(S(=N)(=O)C3CC3)cc2)ncc1Br)C(C)(C)O` (mixture of isomers) [Example 1.6, (RS)-S-[4-({5-bromo-4-[(R)-(2-hydroxy-1,2-dimethylpropyl)amino]pyrimidin-2-yl}amino)phenyl]-S-cyclopropylsulfoximide], the IC50 in experiment [1] is below 100 nM; in experiment [2] it was below 100 nM; in experiment [3], 140 nM; at CDK2/CycE it was 8 nM; on CDK1/CycB, 14 nM; with MaTu-ADR it was below 100 nM.

With `CCOC(=O)N=S(=O)(CC)c1ccc(Nc2ncc(Br)c(O[C@H](C)[C@@H](C)O)n2)cc1` (mixture of isomers) [Example 1.39, (RS)-S-[4-({5-bromo-4-[(1R,2R)-2-hydroxy-1-methylpropoxy]pyrimidin-2-yl}amino)phenyl]-N-(ethoxycarbonyl)-S-ethyl sulfoximide], the IC50 in experiment [1] came out at 300 nM; in experiment [2] it was 300 nM; in experiment [3], 300 nM; against CDK2/CycE, 19 nM; at CDK1/CycB it was 49 nM; in the experiment on MaTu-ADR it was 900 nM.

Regarding `COc1cc(Nc2ncc(Br)c(N[C@H](C)C(C)(C)O)n2)ccc1S(C)(=N)=O` (mixture of isomers) [Example 1.23, (RS)-S-[4-({5-bromo-4-[(R)-(2-hydroxy-1,2-dimethylpropyl)amino]pyrimidin-2-yl}amino)-2-methoxyphenyl]-S-methyl sulfoximide], the IC50 was below 100 nM in experiment [1]; 100 nM in experiment [2]; 130 nM in experiment [3]; 6 nM against CDK2/CycE; below 100 nM with MaTu-ADR; 75 nM in experiment [4].

For `COc1cc(Nc2ncc(Br)c(O[C@H](C)[C@@H](C)O)n2)ccc1S(C)(=N)=O` (mixture of isomers) [Example 1.24, (RS)-S-[4-({5-bromo-4-[(1R,2R)-2-hydroxy-1-methylpropoxy]pyrimidin-2-yl}amino)-2-methoxyphenyl]-S-methyl sulfoximide], the IC50 is 70 nM in experiment [1]; 130 nM in experiment [2]; below 100 nM in experiment [3]; 5 nM against CDK1/CycB; 80 nM in the experiment on MaTu-ADR; 150 nM in experiment [4].

With `CS(=N)(=O)c1ccc(Nc2ncc(Br)c(Nc3ccccc3)n2)cc1` (racemic) [Example 2.3, (RS)-S-(4-{[5-bromo-4-(phenylamino)pyrimidin-2-yl]amino}phenyl)-S-methyl sulfoximide], the IC50 in experiment [1] came out at 400 nM; in experiment [2] it was 190 nM; in experiment [3], 300 nM; on CDK1/CycB it was 160 nM; in the experiment on MaTu-ADR, 120 nM.
